Experiments:
Type in all cases: toxicity, cell-based
HEK-293T = experiment: Incucyte cell viability with HEK293T; settings: human, 10 µM, compound concentration 10 uM
Fibroblast = experiment: Incucyte cell viability with human fibroblast; settings: 10 µM, compound concentration 10 uM
U2OS = experiment: Incucyte cell viability with U2OS; settings: human, 10 µM, compound concentration 10 uM
Further: unitless GR value; below 1 slowed growth and below 0 cell loss.

SMILES	Growth Rate (HEK-293T; 6 h, replicate number 1)	Growth Rate (HEK-293T; 6 h, replicate number 2)	Growth Rate (HEK-293T; 12 h, replicate number 1)	Growth Rate (HEK-293T; 12 h, replicate number 2)	Growth Rate (HEK-293T; 18 h, replicate number 1)	Growth Rate (HEK-293T; 18 h, replicate number 2)	Growth Rate (HEK-293T; 24 h, replicate number 1)	Growth Rate (HEK-293T; 24 h, replicate number 2)	Growth Rate (Fibroblast; 6 h, replicate number 1)	Growth Rate (Fibroblast; 6 h, replicate number 2)	Growth Rate (Fibroblast; 12 h, replicate number 1)	Growth Rate (Fibroblast; 12 h, replicate number 2)	Growth Rate (Fibroblast; 24 h, replicate number 2)	Growth Rate (U2OS; 6 h, replicate number 1)	Growth Rate (U2OS; 6 h, replicate number 2)	Growth Rate (U2OS; 12 h, replicate number 1)	Growth Rate (U2OS; 12 h, replicate number 2)	Growth Rate (U2OS; 18 h, replicate number 1)	Growth Rate (U2OS; 18 h, replicate number 2)	Growth Rate (U2OS; 24 h, replicate number 2)	also measured
O=C(Nc1ccc(-n2nc(C(F)(F)F)cc2C(F)(F)F)cc1)c1ccncc1F	-0.04	-0.25	0.33	0.24	0.25	0.42	0.31	0.46	0.37	-1	-1	0.14	0.69	-0.16	0.41	0.54	0.63	0.8	0.66	0.77	Growth Rate (Fibroblast; 0 h, replicate number 1): -0.09; Growth Rate (Fibroblast; 18 h, replicate number 2): 0.72; Growth Rate (Fibroblast; 24 h, replicate number 1): 0.81; Growth Rate (U2OS; 0 h, replicate number 2): -1; Growth Rate (U2OS; 24 h, replicate number 1): 0.69
Cc1nccn1CC1CCc2c(c3ccccc3n2C)C1=O.Cl (stereo not given)	0.82	0.6		0.75		0.79		0.87					0.9	0.77	0.44	0.96		0.91	0.88		Growth Rate (U2OS; 0 h, replicate number 1): -0.28
FC(F)(F)c1ccccc1-c1cc(C(F)(F)F)c2[nH]c(C3=NOC4(CCCCC4)C3)nc2c1	0.12	-0.15	-0.3	-0.05	-0.22	-0.02	-0.23	0		-0.79		-0.41	-0.03				0.98			0.94	Growth Rate (Fibroblast; 18 h, replicate number 2): -0.08; Growth Rate (U2OS; 0 h, replicate number 2): -0.12
COc1cc(N)c(Cl)cc1C(=O)NC1CN2CCC1CC2.Cl (stereo not given)	-0.18	-0.12	0.31	0.19	0.18	0.29	0.31	0.38	-0.82	-0.28	0.48			0.67	0.95	0.95			1		Growth Rate (Fibroblast; 0 h, replicate number 2): -0.73; Growth Rate (U2OS; 0 h, replicate number 2): -0.2
CCCC(=O)C1CCN(c2ncnc3c2CN(C(=O)c2ccc(-c4ccccc4)cc2)CC3)CC1	0.24	0.35		0.75		0.82		0.74	0.84	-1		0.73	0.9	0.51		0.92		0.81			Growth Rate (Fibroblast; 18 h, replicate number 1): 0.74; Growth Rate (Fibroblast; 18 h, replicate number 2): 0.93; Growth Rate (U2OS; 24 h, replicate number 1): 0.83
N#Cc1cccc(-c2nc(-c3cccnc3)no2)c1	0.4	0.1		0.6		0.95				0.7	-0.97	0.88	0.92			0.67			1		Growth Rate (Fibroblast; 0 h, replicate number 1): -0.49; Growth Rate (Fibroblast; 18 h, replicate number 1): -0.08; Growth Rate (Fibroblast; 18 h, replicate number 2): 0.55; Growth Rate (Fibroblast; 24 h, replicate number 1): 0.19; Growth Rate (U2OS; 0 h, replicate number 2): -0.52
COc1c(C(=O)/C=C/c2ccccc2)c(O)c(OC)c2occc12	-0.45	-0.38	0.27	0.28	0.86	0.53		0.75		-0.26	-0.31	0.35	0.71	0.86	0.76	0.64	0.6	0.71	0.55	0.83	Growth Rate (Fibroblast; 18 h, replicate number 1): 0; Growth Rate (Fibroblast; 18 h, replicate number 2): 0.84; Growth Rate (Fibroblast; 24 h, replicate number 1): 0.86; Growth Rate (U2OS; 0 h, replicate number 1): -0.43; Growth Rate (U2OS; 0 h, replicate number 2): -0.14; Growth Rate (U2OS; 24 h, replicate number 1): 0.78
O=C1CSC(=O)N1C(CCc1ccncc1)COc1ccc(-c2cccc([N+](=O)[O-])c2)cc1 (stereo not given)	-0.06	0.02	0.24	0.27	0.48		0.87	0.65						0.3		0.76	0.94	0.8	0.95	1	Growth Rate (Fibroblast; 0 h, replicate number 1): 0.71; Growth Rate (Fibroblast; 0 h, replicate number 2): -0.87; Growth Rate (Fibroblast; 18 h, replicate number 1): 0.92; Growth Rate (Fibroblast; 24 h, replicate number 1): 0.45; Growth Rate (U2OS; 0 h, replicate number 1): -0.68; Growth Rate (U2OS; 0 h, replicate number 2): -0.97; Growth Rate (U2OS; 24 h, replicate number 1): 0.89
O=c1c(Br)ccc2n1C[C@@H]1CNC[C@H]2C1	0.59		0.4		0.61		0.89		-0.94				0.89		0.92						Growth Rate (Fibroblast; 0 h, replicate number 1): 0.52; Growth Rate (Fibroblast; 0 h, replicate number 2): -0.26
CC(CNS(=O)(=O)C(C)C)c1ccc(-c2ccc(C#N)cc2)cc1 (stereo not given)	-0.35		-0.18	-0.01	0	0.16	0.05	0.22	0.92	-0.76	-0.89	0.02	0.51			0.81	0.82	0.83	0.73	0.84	Growth Rate (Fibroblast; 0 h, replicate number 1): 0.04; Growth Rate (Fibroblast; 18 h, replicate number 1): -0.2; Growth Rate (Fibroblast; 18 h, replicate number 2): 0.43; Growth Rate (Fibroblast; 24 h, replicate number 1): 0.14; Growth Rate (U2OS; 0 h, replicate number 2): 0.02; Growth Rate (U2OS; 24 h, replicate number 1): 0.9
Cc1ccc(S(=O)(=O)Nc2ccc(-n3nc(C(F)(F)F)cc3C(F)(F)F)cc2)cc1	0.36	0.63	0.58	0.66	0.47	0.81	0.62	0.92	-0.21	-1	-1	0.78	0.83	0.01	0.69	0.91	0.8	0.74	0.83	0.72	Growth Rate (Fibroblast; 18 h, replicate number 1): 0.74; Growth Rate (U2OS; 24 h, replicate number 1): 0.84
O=C(Nc1c(-c2cccs2)nc2ccc(Cl)cn12)c1ccc(Cl)cc1	0.88									-1	-1			0.3	0.69	0.64	0.81	0.95	0.75	0.56	Growth Rate (Fibroblast; 0 h, replicate number 1): 0.89; Growth Rate (Fibroblast; 18 h, replicate number 1): 0.47; Growth Rate (U2OS; 24 h, replicate number 1): 0.97
CC1(C)CC(CN2CCC(F)(CNC(=O)c3cc(Cl)cc(Cl)c3)CC2)CCO1 (stereo not given)	0.4								-1	0.34			0.97	0.71	0.8	0.85					Growth Rate (U2OS; 0 h, replicate number 1): -0.43
Cc1c(C(=O)Nc2cccc(C(F)(F)F)c2)cc(-c2ccccc2)n1CCCN1CCOCC1.Cl	-0.17	-0.54	0.11	0.01	0.32	0.27	0.46	0.37	-0.95	0.1		0.65	0.84				0.89		0.88	0.95	Growth Rate (Fibroblast; 18 h, replicate number 2): 0.73; Growth Rate (U2OS; 0 h, replicate number 1): 0.27
Cc1c(-c2cc(-c3ccccc3Cl)no2)cnn1C1CCNCC1.Cl	-0.95	-0.85	-0.84	-0.43	-0.72	-0.18	-0.68	-0.15	0.11	-1	-1	-0.55	-0.36	0.45	0.01	0.76	0.66	0.87	0.68	0.75	Growth Rate (Fibroblast; 0 h, replicate number 1): 0.68; Growth Rate (Fibroblast; 18 h, replicate number 2): -0.4; Growth Rate (Fibroblast; 24 h, replicate number 1): 0.83; Growth Rate (U2OS; 0 h, replicate number 2): -1; Growth Rate (U2OS; 24 h, replicate number 1): 0.89

— ChEMBL document CHEMBL5303304, “EUbOPEN Chemogenomics Library - IncuCyte” (2023)
